Reference: patent publication US8299048B2, “Hexahydrocyclopentyl[f]indazole sulfonamides and derivatives thereof as selective glucocorticoid receptor modulators” (Merck Sharp & Dohme Corp., priority 2008, dated 2012)
Like-named read-outs stand apart in the source and are kept apart here. Blank lines part the entries; values can stand above or below the compound they belong to.

Biological target: T1, human GR (Homo sapiens, UniProt P04150)
T1 sequence (P04150 1-777): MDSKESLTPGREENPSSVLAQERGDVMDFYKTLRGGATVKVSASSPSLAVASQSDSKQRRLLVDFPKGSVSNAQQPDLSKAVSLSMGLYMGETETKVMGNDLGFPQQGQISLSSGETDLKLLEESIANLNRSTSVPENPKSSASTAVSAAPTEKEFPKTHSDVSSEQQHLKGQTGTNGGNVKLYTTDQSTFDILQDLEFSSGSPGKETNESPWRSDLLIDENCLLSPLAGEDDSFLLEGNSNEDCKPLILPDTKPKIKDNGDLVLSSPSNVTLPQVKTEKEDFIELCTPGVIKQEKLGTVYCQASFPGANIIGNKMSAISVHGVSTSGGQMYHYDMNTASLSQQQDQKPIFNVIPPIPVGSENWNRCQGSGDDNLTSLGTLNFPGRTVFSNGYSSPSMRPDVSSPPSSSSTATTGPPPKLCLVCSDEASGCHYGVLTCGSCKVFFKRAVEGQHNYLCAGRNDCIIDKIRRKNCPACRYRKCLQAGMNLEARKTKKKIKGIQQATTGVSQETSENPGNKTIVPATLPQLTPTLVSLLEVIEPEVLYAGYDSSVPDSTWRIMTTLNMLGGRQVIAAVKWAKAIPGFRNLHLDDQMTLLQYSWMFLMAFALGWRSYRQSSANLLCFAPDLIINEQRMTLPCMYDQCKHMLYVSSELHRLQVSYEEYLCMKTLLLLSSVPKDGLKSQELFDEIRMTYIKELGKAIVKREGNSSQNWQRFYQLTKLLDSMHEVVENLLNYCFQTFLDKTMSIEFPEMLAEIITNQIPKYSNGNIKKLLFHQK
Assay: Transrepression Assay (GITAR), TNFα-β-lactamase reporter in U937 cells
Type: cell-based
Parameters: U937 cells contain an endogenous glucocorticoid receptor (GR); endogenous in cells; host or cells: U937 cells stably transfected with the TNF-alpha promoter/beta-lactamase reporter
Conditions: for GITAR > GRAMM % SEP: GITAR Emax minus GRAMMER Emax; for EC50: U937 cells, inflection point, read-out: Transrepression U937 Cells GITAR IP
Outline: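 U937 cells stably carrying a TNF-α promoter–β-lactamase reporter, with endogenous GR, are preincubated with compound 30–45 min at 37 °C, then stimulated with PMA (5 ng/ml final) and LPS (100 ng/ml final) overnight (~18 hr). β-Lactamase is read with CCF2-AM substrate; repression by 100 nM dexamethasone defines 100%.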

[1] = U-937, U937 cells, maximum activity, read-out: Transrepression U937 Cells GITAR Emax
[2] = U-937, activity repressed by 100 nM dexamethasone alone set as 100%, read-out: maximal activity in the transrepression (GITAR) assay

SMILES: COCCN(C[C@H]1CCC2=Cc3c(cnn3-c3ccc(F)cc3)C[C@@]21C)S(=O)(=O)c1c(C)noc1C [Example 173, N-{[(4αR,5S)-1-(4-fluorophenyl)-4α-methyl-1,4,4α,5,6,7-hexahydrocyclopenta[f]indazol-5-yl]methyl}-N-(2-methoxyethyl)-3,5-dimethylisoxazole-4-sulfonamide]
GITAR > GRAMM % SEP: 12.6%
EC50: 520 nM
Emax [1]: 83%
Emax [2]: > 5%

SMILES: CCS(=O)(=O)N(CC1CCCO1)C[C@H]1CCC2=Cc3c(cnn3-c3ccc(F)cc3)C[C@@]21C (stereo partly drawn) [Example 174, N-{[(4αR,5S)-1-(4-fluorophenyl)-4α-methyl-1,4,4α,5,6,7-hexahydrocyclopenta[f]indazol-5-yl]methyl}-N-(tetrahydrofuran-2-ylmethyl)ethanesulfonamide]
GITAR > GRAMM % SEP: 4.2%
EC50: 423 nM
Emax [1]: 85.3%
Emax [2]: > 5%

SMILES: CN(C[C@H]1CCC2=Cc3c(cnn3-c3ccc(F)cc3)C[C@@]21C)S(=O)(=O)CC(F)(F)F [Example 177, 2,2,2-trifluoro-N-{[(4αR,5S)-1-(4-fluorophenyl)-4α-methyl-1,4,4α,5,6,7-hexahydrocyclopenta[f]indazol-5-yl]methyl}-N-methylethanesulfonamide]
GITAR > GRAMM % SEP: 12.9%
EC50: 177 nM
Emax [1]: 80.2%
Emax [2]: > 5%

SMILES: COC(=O)c1ccccc1CS(=O)(=O)N(C[C@H]1CCC2=Cc3c(cnn3-c3ccc(F)cc3)C[C@@]21C)C[C@H](C)O [Example 181, methyl 2-[({{[(4αR,5S)-1-(4-fluorophenyl)-4α-methyl-1,4,4α,5,6,7-hexahydrocyclopenta[f]indazol-5-yl]methyl}[(2S)-2-hydroxypropyl]amino}sulfonyl)methyl]benzoate]
GITAR > GRAMM % SEP: 24.7%
EC50: 263 nM
Emax [1]: 79.2%
Emax [2]: > 5%

SMILES: C[C@@H](O)CN(C[C@H]1CCC2=Cc3c(cnn3-c3ccc(F)cc3)C[C@@]21C)S(=O)(=O)Cc1ccccc1C(=O)O [Example 182, 2-[({{[(4αR,5S)-1-(4-fluorophenyl)-4α-methyl-1,4,4α,5,6,7-hexahydrocyclopenta[f]indazol-5-yl]methyl}[(2R)-2-hydroxypropyl]amino}sulfonyl)methyl]benzoic acid]
GITAR > GRAMM % SEP: 8.2%
EC50: 1890 nM
Emax [1]: 16.2%
Emax [2]: > 5%

SMILES: C[C@H](O)CN(C[C@H]1CCC2=Cc3c(cnn3-c3ccc(F)cc3)C[C@@]21C)S(=O)(=O)Cc1ccccc1C(=O)O [Example 183, 2-[({{[(4αR,5S)-1-(4-fluorophenyl)-4α-methyl-1,4,4α,5,6,7-hexahydrocyclopenta[f]indazol-5-yl]methyl}[(2S)-2-hydroxypropyl]amino}sulfonyl)methyl]benzoic acid]
GITAR > GRAMM % SEP: 8.2%
EC50: 3310 nM
Emax [1]: 23.2%
Emax [2]: > 5%

SMILES: C[C@@H](O)CN(C[C@H]1CCC2=Cc3c(cnn3-c3ccc(F)cc3)C[C@@]21C)S(=O)(=O)Cc1ccccc1C(N)=O [Example 184, 2-[({{[(4αR,5S)-1-(4-fluorophenyl)-4α-methyl-1,4,4α,5,6,7-hexahydrocyclopenta[f]indazol-5-yl]methyl}[(2R)-2-hydroxypropyl]amino}sulfonyl)methyl]benzamide]
GITAR > GRAMM % SEP: 38.7%
EC50: 562 nM
Emax [1]: 60.3%
Emax [2]: > 5%

SMILES: C[C@H](O)CN(C[C@H]1CCC2=Cc3c(cnn3-c3ccc(F)cc3)C[C@@]21C)S(=O)(=O)Cc1ccccc1C(N)=O [Example 185, 2-[({{[(4αR,5S)-1-(4-fluorophenyl)-4α-methyl-1,4,4α,5,6,7-hexahydrocyclopenta[f]indazol-5-yl]methyl}[(2S)-2-hydroxypropyl]amino}sulfonyl)methyl]benzamide]
GITAR > GRAMM % SEP: 43.1%
EC50: 676 nM
Emax [1]: 63%
Emax [2]: > 5%

SMILES: COC(=O)c1ccccc1S(=O)(=O)N(C[C@H]1CCC2=Cc3c(cnn3-c3ccc(F)cc3)C[C@@]21C)C[C@@H](C)O [Example 186, methyl 2-({{[(4αR,5S)-1-(4-fluorophenyl)-4α-methyl-1,4,4α,5,6,7-hexahydrocyclopenta[f]indazol-5-yl]methyl}[(2R)-2-hydroxypropyl]amino}sulfonyl)benzoate]
GITAR > GRAMM % SEP: 27.7%
EC50: 697 nM
Emax [1]: 63.5%
Emax [2]: > 5%

SMILES: COC(=O)c1ccccc1S(=O)(=O)N(C[C@H]1CCC2=Cc3c(cnn3-c3ccc(F)cc3)C[C@@]21C)C[C@H](C)O [Example 187, methyl 2-({{[(4αR,5S)-1-(4-fluorophenyl)-4α-methyl-1,4,4α,5,6,7-hexahydrocyclopenta[f]indazol-5-yl]methyl}[(2S)-2-hydroxypropyl]amino}sulfonyl)benzoate]
GITAR > GRAMM % SEP: 35.6%
EC50: 392 nM
Emax [1]: 71.5%
Emax [2]: > 5%

SMILES: COC(=O)c1ccccc1CS(=O)(=O)N(CCc1ccccc1F)C[C@H]1CCC2=Cc3c(cnn3-c3ccc(F)cc3)C[C@@]21C [Example 188, methyl 2-{[([2-(2-fluorophenyl)ethyl]{[(4αR,5S)-1-(4-fluorophenyl)-4α-methyl-1,4,4α,5,6,7-hexahydrocyclopenta[f]indazol-5-yl]methyl}amino)sulfonyl]methyl}benzoate]
GITAR > GRAMM % SEP: 30.1%
EC50: 190 nM
Emax [1]: 60.5%
Emax [2]: > 5%

SMILES: COC(=O)c1ccccc1S(=O)(=O)N(CCc1ccccc1F)C[C@H]1CCC2=Cc3c(cnn3-c3ccc(F)cc3)C[C@@]21C [Example 189, methyl 2-[([2-(2-fluorophenyl)ethyl]{[(4αR,5S)-1-(4-fluorophenyl)-4α-methyl-1,4,4α,5,6,7-hexahydrocyclopenta[f]indazol-5-yl]methyl}amino)sulfonyl]benzoate]
GITAR > GRAMM % SEP: 15.7%
EC50: 189 nM
Emax [1]: 81%
Emax [2]: > 5%

Continued by falling EC50, values first:

EC50: 822 nM
Emax [1]: 47.5%
Emax [2]: > 5%
SMILES: Cn1cc(S(=O)(=O)N(CC2CCCO2)C[C@H]2CCC3=Cc4c(cnn4-c4ccc(F)cc4)C[C@@]32C)c(C(F)(F)F)n1 (stereo partly drawn) [Example 175, N-{[(4αR,5S)-1-(4-fluorophenyl)-4α-methyl-1,4,4α,5,6,7-hexahydrocyclopenta[f]indazol-5-yl]methyl}-1-methyl-N-(tetrahydrofuran-2-ylmethyl)-3-(trifluoromethyl)-1H-pyrazole-4-sulfonamide]

GITAR > GRAMM % SEP: 31.2%
EC50: 440 nM
Emax [1]: 96.5%
Emax [2]: > 5%
SMILES: CCN(C[C@H]1CCC2=Cc3c(cnn3-c3ccc(F)cc3)C[C@@]21C)S(=O)(=O)CC(F)(F)F [Example 179, N-ethyl-2,2,2-trifluoro-N-{[(4αR,5S)-1-(4-fluorophenyl)-4α-methyl-1,4,4α,5,6,7-hexahydrocyclopenta[f]indazol-5-yl]methyl}ethanesulfonamide]

GITAR > GRAMM % SEP: 17.6%
EC50: 316 nM
Emax [1]: 74.5%
Emax [2]: > 5%
SMILES: Cc1noc(C)c1S(=O)(=O)N(C)C[C@H]1CCC2=Cc3c(cnn3-c3ccc(F)cc3)C[C@@]21C [Example 176, N-{[(4αR,5S)-1-(4-fluorophenyl)-4α-methyl-1,4,4α,5,6,7-hexahydrocyclopenta[f]indazol-5-yl]methyl}-N,3,5-trimethylisoxazole-4-sulfonamide]

GITAR > GRAMM % SEP: 19.5%
EC50: 276 nM
Emax [1]: 74.5%
Emax [2]: > 5%
SMILES: CCN(C[C@H]1CCC2=Cc3c(cnn3-c3ccc(F)cc3)C[C@@]21C)S(=O)(=O)c1c(C)noc1C [Example 178, N-ethyl-N-{[(4αR,5S)-1-(4-fluorophenyl)-4α-methyl-1,4,4α,5,6,7-hexahydrocyclopenta[f]indazol-5-yl]methyl}-3,5-dimethylisoxazole-4-sulfonamide]

GITAR > GRAMM % SEP: 39.5%
EC50: 187 nM
Emax [1]: 77.7%
Emax [2]: > 5%
SMILES: COC(=O)c1ccccc1CS(=O)(=O)N(C[C@H]1CCC2=Cc3c(cnn3-c3ccc(F)cc3)C[C@@]21C)C[C@@H](C)O [Example 180, methyl 2-[({{[(4αR,5S)-1-(4-fluorophenyl)-4α-methyl-1,4,4α,5,6,7-hexahydrocyclopenta[f]indazol-5-yl]methyl}[(2R)-2-hydroxypropyl]amino}sulfonyl)methyl]benzoatee]
